According to ChEMBL document CHEMBL2429821, “A Casein kinase 1/Checkpoint kinase 1 pyrazolo-pyridine protein kinase inhibitor as novel activator of the p53 pathway” (Bioorg Med Chem Lett, 2013):

Tests used:
[1] = biological target: Tyrosine-protein kinase SYK (Homo sapiens) (UniProt P43405); assay: Inhibition of human SYK assessed as residual activity at 1 uM relative to control
[2] = biological target: Protein kinase C alpha type (Homo sapiens) (UniProt P17252); assay: Inhibition of human PKCalpha assessed as residual activity at 1 uM relative to control
[3] = biological target: Ribosomal protein S6 kinase beta-1 (Homo sapiens) (UniProt P23443); assay: Inhibition of human S6K1 assessed as residual activity at 1 uM relative to control
[4] = biological target: Ephrin type-A receptor 2 (Homo sapiens) (UniProt P29317); assay: Inhibition of human EPHA2 assessed as residual activity at 1 uM relative to control
[5] = biological target: Fibroblast growth factor receptor 1 (Homo sapiens, UniProt P11362); assay: Inhibition of human FGFR1 assessed as residual activity at 1 uM relative to control
[6] = biological target: Proto-oncogene tyrosine-protein kinase Src (Homo sapiens) (UniProt P12931); assay: Inhibition of human SRC assessed as residual activity at 1 uM relative to control
[7] = biological target: Insulin-like growth factor 1 receptor (Homo sapiens) (UniProt P08069); assay: Inhibition of human IGF-1R assessed as residual activity at 10 uM relative to control
[8] = biological target: Mitogen-activated protein kinase 9 (Homo sapiens) (UniProt P45984); assay: Inhibition of human JNK2 assessed as residual activity at 10 uM relative to control
[9] = biological target: Insulin receptor (Homo sapiens) (UniProt P06213); assay: Inhibition of human IR assessed as residual activity at 1 uM relative to control
[10] = biological target: Ribosomal protein S6 kinase beta-1 (Homo sapiens) (UniProt P23443); assay: Inhibition of human S6K1 assessed as residual activity at 10 uM relative to control
[11] = biological target: Serine/threonine-protein kinase pim-1 (Homo sapiens) (UniProt P11309); assay: Inhibition of human PIM1 assessed as residual activity at 10 uM relative to control
[12] = biological target: SRSF protein kinase 1 (Homo sapiens) (UniProt Q96SB4); assay: Inhibition of human SRPK1 assessed as residual activity at 1 uM relative to control
[13] = biological target: MAP/microtubule affinity-regulating kinase 3 (Homo sapiens) (UniProt P27448); assay: Inhibition of human MARK3 assessed as residual activity at 1 uM relative to control
Bos taurus = organism: Bos taurus; assay: Inhibition of cow PKA assessed as residual activity at 1 uM relative to control
[14] = biological target: 3-phosphoinositide-dependent protein kinase 1 (Homo sapiens) (UniProt O15530); assay: Inhibition of human PDK1 assessed as residual activity at 10 uM relative to control
[15] = biological target: T1, Inhibitor of nuclear factor kappa-B kinase subunit beta (Homo sapiens) (UniProt O14920); assay: Inhibition of human IKKbeta assessed as residual activity at 1 uM relative to control
T1 sequence (whole entry): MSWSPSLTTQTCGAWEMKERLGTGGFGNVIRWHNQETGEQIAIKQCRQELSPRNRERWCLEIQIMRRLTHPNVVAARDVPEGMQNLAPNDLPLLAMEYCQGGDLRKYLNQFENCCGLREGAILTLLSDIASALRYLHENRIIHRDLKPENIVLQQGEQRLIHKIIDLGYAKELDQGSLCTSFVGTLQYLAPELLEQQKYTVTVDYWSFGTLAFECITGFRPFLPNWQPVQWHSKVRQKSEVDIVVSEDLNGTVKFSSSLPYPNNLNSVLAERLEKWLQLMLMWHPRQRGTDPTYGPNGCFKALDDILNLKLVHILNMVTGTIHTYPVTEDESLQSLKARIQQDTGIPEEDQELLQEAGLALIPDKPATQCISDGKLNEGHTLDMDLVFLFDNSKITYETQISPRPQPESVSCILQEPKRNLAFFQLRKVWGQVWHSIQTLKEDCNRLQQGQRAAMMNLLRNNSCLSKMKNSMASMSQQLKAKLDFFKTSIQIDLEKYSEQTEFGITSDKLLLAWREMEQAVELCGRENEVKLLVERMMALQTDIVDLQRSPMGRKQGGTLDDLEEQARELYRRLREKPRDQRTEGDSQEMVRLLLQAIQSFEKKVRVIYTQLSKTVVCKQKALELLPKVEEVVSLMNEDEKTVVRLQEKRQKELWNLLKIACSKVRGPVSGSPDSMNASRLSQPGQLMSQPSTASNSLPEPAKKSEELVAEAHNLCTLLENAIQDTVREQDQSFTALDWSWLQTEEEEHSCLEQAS

[16] = biological target: SRSF protein kinase 1 (Homo sapiens) (UniProt Q96SB4); assay: Inhibition of human SRPK1 assessed as residual activity at 10 uM relative to control
[17] = biological target: Insulin-like growth factor 1 receptor (Homo sapiens) (UniProt P08069); assay: Inhibition of human IGF-1R assessed as residual activity at 1 uM relative to control
Rattus norvegicus [18] = organism: Rattus norvegicus; assay: Inhibition of rat AMPK assessed as residual activity at 10 uM relative to control
[19] = biological target: T2, MAP kinase-activated protein kinase 5 (Homo sapiens) (UniProt Q8IW41); assay: Inhibition of human PRAK assessed as residual activity at 10 uM relative to control
T2 sequence (whole entry): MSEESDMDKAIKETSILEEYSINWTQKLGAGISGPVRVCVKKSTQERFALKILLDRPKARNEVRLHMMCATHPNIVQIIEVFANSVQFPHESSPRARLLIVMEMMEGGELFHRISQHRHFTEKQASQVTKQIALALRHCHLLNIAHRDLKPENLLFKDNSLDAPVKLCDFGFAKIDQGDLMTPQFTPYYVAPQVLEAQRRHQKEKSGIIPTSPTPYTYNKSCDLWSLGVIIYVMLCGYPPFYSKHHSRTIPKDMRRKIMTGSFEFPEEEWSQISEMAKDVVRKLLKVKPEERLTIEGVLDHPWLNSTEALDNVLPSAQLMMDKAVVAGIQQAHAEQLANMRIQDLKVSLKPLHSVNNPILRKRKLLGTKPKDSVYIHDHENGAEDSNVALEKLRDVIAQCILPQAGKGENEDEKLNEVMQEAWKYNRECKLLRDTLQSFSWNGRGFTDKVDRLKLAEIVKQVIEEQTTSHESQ

[20] = biological target: Casein kinase I isoform delta (Rattus norvegicus) (UniProt Q06486); assay: Inhibition of rat CK1delta assessed as residual activity at 10 uM relative to control
[21] = biological target: Cyclin-dependent kinase 2 (Homo sapiens) (UniProt P24941); assay: Inhibition of human CDK2 assessed as residual activity at 10 uM relative to control
[22] = biological target: Aurora kinase B (Homo sapiens) (UniProt Q96GD4); assay: Inhibition of human Aurora-B assessed as residual activity at 10 uM relative to control
[23] = biological target: Tyrosine-protein kinase Yes (Homo sapiens) (UniProt P07947); assay: Inhibition of human YES1 assessed as residual activity at 1 uM relative to control
Rattus norvegicus [24] = organism: Rattus norvegicus; assay: Inhibition of rat AMPK assessed as residual activity at 1 uM relative to control
[25] = biological target: Ribosomal protein S6 kinase alpha-3 (Homo sapiens) (UniProt P51812); assay: Inhibition of human RSK2 assessed as residual activity at 1 uM relative to control
Ribosomal protein S6 kinase alpha-3 (Homo sapiens), sequence (P51812 whole entry): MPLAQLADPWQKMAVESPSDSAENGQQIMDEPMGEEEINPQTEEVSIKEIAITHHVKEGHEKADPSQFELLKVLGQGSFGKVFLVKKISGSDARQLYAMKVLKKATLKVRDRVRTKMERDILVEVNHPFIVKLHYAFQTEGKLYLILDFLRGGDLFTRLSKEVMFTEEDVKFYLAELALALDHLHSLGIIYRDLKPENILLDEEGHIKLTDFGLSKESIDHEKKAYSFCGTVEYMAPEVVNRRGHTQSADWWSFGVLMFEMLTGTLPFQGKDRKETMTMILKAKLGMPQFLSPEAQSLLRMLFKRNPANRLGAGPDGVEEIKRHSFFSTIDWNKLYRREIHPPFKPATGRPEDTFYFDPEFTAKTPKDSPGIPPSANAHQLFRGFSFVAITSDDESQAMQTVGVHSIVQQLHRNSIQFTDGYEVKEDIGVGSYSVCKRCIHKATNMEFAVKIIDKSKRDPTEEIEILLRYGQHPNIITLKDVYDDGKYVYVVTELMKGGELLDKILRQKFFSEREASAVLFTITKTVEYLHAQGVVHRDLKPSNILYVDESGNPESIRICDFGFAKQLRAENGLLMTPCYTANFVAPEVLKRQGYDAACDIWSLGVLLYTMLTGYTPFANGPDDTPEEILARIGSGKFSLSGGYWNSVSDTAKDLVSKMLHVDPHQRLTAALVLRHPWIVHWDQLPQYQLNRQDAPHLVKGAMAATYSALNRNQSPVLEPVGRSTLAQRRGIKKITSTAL

Insulin-like growth factor 1 receptor (Homo sapiens), sequence (P08069 31-736 limits assumed): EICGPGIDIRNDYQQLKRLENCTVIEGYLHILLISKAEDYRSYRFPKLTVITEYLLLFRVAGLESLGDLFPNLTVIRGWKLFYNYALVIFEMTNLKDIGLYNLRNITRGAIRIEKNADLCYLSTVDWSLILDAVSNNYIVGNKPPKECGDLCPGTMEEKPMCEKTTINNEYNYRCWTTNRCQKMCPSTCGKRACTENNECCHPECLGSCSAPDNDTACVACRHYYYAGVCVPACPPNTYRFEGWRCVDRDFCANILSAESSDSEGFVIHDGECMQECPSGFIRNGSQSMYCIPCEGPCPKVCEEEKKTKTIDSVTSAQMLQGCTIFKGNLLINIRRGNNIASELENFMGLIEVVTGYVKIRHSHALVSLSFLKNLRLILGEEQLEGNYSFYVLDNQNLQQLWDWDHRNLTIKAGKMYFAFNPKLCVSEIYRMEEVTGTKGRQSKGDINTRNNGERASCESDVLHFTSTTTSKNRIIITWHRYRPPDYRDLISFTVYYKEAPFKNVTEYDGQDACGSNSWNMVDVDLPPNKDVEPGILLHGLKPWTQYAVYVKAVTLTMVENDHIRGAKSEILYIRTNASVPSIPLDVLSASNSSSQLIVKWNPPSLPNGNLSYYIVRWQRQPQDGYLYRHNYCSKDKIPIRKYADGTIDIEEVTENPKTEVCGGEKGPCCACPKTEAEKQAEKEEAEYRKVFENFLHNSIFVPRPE
Insulin-like growth factor 1 receptor (Homo sapiens), sequence (P08069 741-1367 limits assumed): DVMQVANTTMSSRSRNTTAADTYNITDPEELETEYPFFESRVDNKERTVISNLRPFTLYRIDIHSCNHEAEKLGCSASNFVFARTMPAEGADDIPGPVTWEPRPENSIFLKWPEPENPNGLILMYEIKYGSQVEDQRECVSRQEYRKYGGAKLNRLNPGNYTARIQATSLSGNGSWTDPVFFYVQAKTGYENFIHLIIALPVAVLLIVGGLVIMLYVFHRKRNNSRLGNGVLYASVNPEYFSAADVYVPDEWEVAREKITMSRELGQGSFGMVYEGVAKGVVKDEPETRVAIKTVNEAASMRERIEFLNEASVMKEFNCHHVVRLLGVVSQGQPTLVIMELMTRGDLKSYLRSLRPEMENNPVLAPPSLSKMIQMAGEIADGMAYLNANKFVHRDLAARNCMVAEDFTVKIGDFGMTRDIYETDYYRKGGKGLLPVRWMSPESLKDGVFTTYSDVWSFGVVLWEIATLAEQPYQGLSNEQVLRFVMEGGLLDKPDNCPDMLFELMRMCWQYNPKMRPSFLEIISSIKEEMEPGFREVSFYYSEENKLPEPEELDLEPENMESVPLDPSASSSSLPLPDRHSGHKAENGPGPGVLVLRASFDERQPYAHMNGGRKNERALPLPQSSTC
MAP/microtubule affinity-regulating kinase 3 (Homo sapiens), sequence (P27448 whole entry, looked up): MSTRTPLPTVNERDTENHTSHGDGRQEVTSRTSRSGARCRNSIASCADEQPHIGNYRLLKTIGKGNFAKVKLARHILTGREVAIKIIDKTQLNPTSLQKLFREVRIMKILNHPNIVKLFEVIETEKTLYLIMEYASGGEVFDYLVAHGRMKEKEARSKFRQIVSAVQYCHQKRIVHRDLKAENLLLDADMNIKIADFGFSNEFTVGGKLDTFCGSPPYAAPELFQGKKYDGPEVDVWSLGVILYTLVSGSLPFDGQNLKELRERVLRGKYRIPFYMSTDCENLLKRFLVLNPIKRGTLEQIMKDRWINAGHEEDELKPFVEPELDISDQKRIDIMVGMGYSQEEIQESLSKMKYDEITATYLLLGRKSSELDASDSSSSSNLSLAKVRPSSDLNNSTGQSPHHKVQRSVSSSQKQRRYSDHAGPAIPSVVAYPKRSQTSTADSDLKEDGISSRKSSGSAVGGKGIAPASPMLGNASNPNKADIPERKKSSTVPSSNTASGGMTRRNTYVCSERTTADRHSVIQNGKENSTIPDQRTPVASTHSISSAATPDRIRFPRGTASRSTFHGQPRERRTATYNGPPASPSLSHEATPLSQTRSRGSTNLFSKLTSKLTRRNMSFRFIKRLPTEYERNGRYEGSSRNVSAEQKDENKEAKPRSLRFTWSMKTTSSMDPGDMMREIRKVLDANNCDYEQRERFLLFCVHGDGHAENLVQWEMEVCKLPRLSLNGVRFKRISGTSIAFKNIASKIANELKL
Mitogen-activated protein kinase 9 (Homo sapiens), sequence (P45984 whole entry, looked up): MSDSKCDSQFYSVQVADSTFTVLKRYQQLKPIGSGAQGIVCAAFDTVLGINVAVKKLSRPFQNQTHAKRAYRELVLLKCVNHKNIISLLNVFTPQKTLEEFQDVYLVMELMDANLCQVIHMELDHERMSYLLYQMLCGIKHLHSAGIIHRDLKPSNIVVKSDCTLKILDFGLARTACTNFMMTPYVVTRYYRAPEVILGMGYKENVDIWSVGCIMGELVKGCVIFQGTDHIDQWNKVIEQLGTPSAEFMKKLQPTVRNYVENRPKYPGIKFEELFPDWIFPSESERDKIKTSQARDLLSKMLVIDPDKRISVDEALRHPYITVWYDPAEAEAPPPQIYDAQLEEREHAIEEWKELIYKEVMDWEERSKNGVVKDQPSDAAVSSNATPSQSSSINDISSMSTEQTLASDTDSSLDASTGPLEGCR
Tyrosine-protein kinase Yes (Homo sapiens), sequence (P07947 2-543 limits assumed): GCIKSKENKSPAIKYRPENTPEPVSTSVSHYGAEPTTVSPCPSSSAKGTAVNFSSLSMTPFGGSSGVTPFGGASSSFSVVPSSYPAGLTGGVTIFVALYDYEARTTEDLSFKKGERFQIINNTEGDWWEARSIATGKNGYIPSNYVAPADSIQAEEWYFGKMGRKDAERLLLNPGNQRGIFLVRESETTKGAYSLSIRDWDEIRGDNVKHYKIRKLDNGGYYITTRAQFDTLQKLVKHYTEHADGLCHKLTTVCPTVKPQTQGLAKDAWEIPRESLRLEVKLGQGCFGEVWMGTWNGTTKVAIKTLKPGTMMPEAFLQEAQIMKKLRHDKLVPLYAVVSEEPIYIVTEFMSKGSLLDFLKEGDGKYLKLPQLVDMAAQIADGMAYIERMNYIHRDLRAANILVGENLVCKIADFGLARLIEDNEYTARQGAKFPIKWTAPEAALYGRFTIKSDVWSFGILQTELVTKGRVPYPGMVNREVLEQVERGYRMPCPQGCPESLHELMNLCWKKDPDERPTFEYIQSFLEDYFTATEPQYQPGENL
3-phosphoinositide-dependent protein kinase 1 (Homo sapiens), sequence (O15530 whole entry, looked up): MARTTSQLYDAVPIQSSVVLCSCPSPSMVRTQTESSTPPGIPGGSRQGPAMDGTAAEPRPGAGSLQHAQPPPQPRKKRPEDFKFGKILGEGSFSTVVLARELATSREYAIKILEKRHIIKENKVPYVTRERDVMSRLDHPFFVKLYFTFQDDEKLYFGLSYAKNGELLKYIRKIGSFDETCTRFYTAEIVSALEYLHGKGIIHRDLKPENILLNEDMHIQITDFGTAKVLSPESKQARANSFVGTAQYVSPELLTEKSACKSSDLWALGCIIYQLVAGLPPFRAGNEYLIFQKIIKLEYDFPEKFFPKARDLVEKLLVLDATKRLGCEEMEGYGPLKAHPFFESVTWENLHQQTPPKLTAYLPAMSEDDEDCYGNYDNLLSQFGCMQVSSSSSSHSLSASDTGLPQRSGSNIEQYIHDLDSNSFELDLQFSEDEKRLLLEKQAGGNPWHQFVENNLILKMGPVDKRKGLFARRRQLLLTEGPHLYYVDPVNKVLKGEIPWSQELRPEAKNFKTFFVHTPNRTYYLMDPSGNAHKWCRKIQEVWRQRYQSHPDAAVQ

SMILES: CC(=O)Nc1cccc(-c2cnc3[nH]nc(C)c3c2)c1
- Activity [1]: 115%
- Activity [2]: 124%
- Activity [3]: 90.6%
- Activity [4]: 101%
- Activity [5]: 107%
- Activity [6]: 65%
- Activity [7]: 12.5%
- Activity [8]: 70.9%
- Activity [9]: 106%
- Activity [10]: 69.8%
- Activity [11]: 28.2%
- Activity [12]: 95.9%
- Activity [13]: 62.6%
- Activity (Bos taurus): 95%
- Activity [14]: 70.4%
- Activity [15]: 97%
- Activity [16]: 89%
- Activity [17]: 70.8%
- Activity (Rattus norvegicus [18]): 69.9%
- Activity [19]: 89.4%
- Activity [20]: 10%
- Activity [21]: 40.3%
- Activity [22]: 85.1%
- Activity [23]: 100%
- Activity (Rattus norvegicus [24]): 74.3%
- Activity [25]: 93.8%

SMILES: CCCC(=O)Nc1n[nH]c2ncc(-c3cccnc3)cc12
- Activity [1]: 99%
- Activity [2]: 79%
- Activity [3]: 85%
- Activity [4]: 86%
- Activity [5]: 92%
- Activity [6]: 75%
- Activity [7]: 92%
- Activity [8]: 88%
- Activity [9]: 101%
- Activity [10]: 88%
- Activity [11]: 53%
- Activity [12]: 93%
- Activity [13]: 84%
- Activity (Bos taurus): 101%
- Activity [14]: 98%
- Activity [15]: 70%
- Activity [16]: 91%
- Activity [17]: 88%
- Activity (Rattus norvegicus [18]): 105%
- Activity [19]: 88%
- Activity [20]: 84%
- Activity [21]: 5%
- Activity [22]: 71%
- Activity [23]: 83%
- Activity (Rattus norvegicus [24]): 93%
- Activity [25]: 92%

SMILES: CC(=O)Nc1nccc(-c2c(-c3ccccc3)noc2C)n1
- Activity [1]: 69%
- Activity [2]: 94%
- Activity [3]: 108%
- Activity [4]: 91.2%
- Activity [5]: 99.8%
- Activity [6]: 98.3%
- Activity [7]: 92.5%
- Activity [8]: 23.4%
- Activity [9]: 101%
- Activity [10]: 99.9%
- Activity [11]: 88.9%
- Activity [12]: 87.7%
- Activity [13]: 94.6%
- Activity (Bos taurus): 81.7%
- Activity [14]: 66%
- Activity [15]: 44.4%
- Activity [16]: 91.3%
- Activity [17]: 82.7%
- Activity (Rattus norvegicus [18]): 101%
- Activity [19]: 83.7%
- Activity [20]: 7.2%
- Activity [21]: 104%
- Activity [22]: 93%
- Activity [23]: 119%
- Activity (Rattus norvegicus [24]): 82.8%
- Activity [25]: 78.7%
